The results in this text go back to US6403831B1, “Substituted benzylidene indenyl formamides, acetamides and propionamides” (Cell Pathways, Inc., priority 1996, dated 2002).

The first assay concerns human colon carcinoma cell line, SW-480. As to the kind of experiment: Growth inhibition, Sulforhodamine B (SRB) protein binding assay. As to conditions: SW-480 cell line, six days continuous exposure. In kind it is cell-based. As to the method: These compounds were assayed for their growth inhibitory activity on the human colon carcinoma cell line, SW-480 obtained from ATCC (Rockville, Md.), to ascertain the degree of growth inhibition. Growth inhibition of this cell line is indicative of a benefit on precancerous lesions and neoplasms. The cell line and growth assay employed for these experiments are well characterized, and are used to evaluate the anti-neoplastic properties of NSAIDs. The assay is used by the United States National Cancer Institute in its screening program for new anti-cancer drugs.
Drug stock solutions were made in 100% DMSO then diluted with RPMI media for cell culture testing. All drug solutions were prepared fresh on the day of testing. The cultured cells were obtained at passage #99 and grown in RPMI media supplemented with 5% fetal calf serum, and 2 mM glutamine, 100 U/ml penicillin, 100 U/ml streptomycin, and 0.25 μg/ml amphotericin. The cultures were maintained in a humidified atmosphere of 95% air and 5% CO2 at 37° C. The cultures were passaged at preconfluent densities using a solution of 0.05% trypsin and 0.53 mM EDTA. Cells were plated at 1000 cells/well for 96 well flat-bottom microtiter plates.
Tumor cell growth inhibition was assessed using the Sulforhodamine B (SRB) protein binding assay. In this assay, tumor cells were plated in 96-well plates and treated with drug-containing media for six days (continuous exposure). For each plate, 6 wells were designated as no treatment controls, six wells as vehicle (0.1% DMSO) controls, and the remaining wells for drug dilutions with three wells per drug concentration. At the end of the exposure period, the cells were fixed and stained with sulforhodamine B, a protein binding dye. The dye was then solubilized, and the optical density of the resulting solution was determined on a 96-well plate reader. The mean dye intensity of the treated wells was then divided by the mean dye intensity in the control wells (6 wells of each) to determine the effect of the drug on the cells. Dye intensity is proportional to the number of cells or amount of protein per well. The resultant “percent inhibition” value then represents the degree of growth inhibition caused by the drug.
For each experiment, an IC50 value was determined and used for comparative purposes. This value is equivalent to the concentration of drug needed to inhibit tumor cell growth by 50%. IC50 values were obtained graphically by connecting the mean values for each drug concentration tested. Each experiment included at least three wells per drug concentration. Concentration was plotted on a log scale on the X-axis.
For `COc1cc(/C=C2/C(C)=C(CC(=O)Nc3ccc(Br)cc3)c3cc(F)ccc32)cc(OC)c1OC` [Example 23, (Z)-5-fluoro-2-methyl-1-(3,4,5-trimethoxybenzylidene)-3-(N-4-bromophenyl)-indenylacetamide], the IC50 came to 8 µM.

The target in a further assay is T1, COX I (Ovis aries, UniProt P05979).
T1 construct: The COX was purified form ram seminal vesicles; from tissue; host or cells: ram seminal vesicles
T1 sequence (P05979 25-600): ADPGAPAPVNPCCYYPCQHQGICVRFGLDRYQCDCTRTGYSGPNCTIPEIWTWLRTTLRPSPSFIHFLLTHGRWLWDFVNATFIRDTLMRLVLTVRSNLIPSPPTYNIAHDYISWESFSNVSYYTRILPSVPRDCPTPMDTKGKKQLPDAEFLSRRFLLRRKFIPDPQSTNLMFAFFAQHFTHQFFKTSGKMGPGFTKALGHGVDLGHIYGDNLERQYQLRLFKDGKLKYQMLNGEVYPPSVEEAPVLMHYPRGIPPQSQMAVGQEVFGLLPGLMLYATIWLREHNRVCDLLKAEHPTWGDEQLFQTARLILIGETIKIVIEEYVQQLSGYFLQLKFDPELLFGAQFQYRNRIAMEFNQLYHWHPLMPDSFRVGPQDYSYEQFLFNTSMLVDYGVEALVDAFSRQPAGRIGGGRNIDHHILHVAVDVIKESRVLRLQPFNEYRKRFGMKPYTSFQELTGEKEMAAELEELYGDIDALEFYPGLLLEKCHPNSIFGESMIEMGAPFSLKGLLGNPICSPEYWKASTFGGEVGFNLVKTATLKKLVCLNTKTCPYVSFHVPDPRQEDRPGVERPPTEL
The assay can be described thus: Cyclooxygenase (COX) inhibition, purified COX. In kind it is biochemical. The following applies: 100 μM test compound; purified COX from ram seminal vesicles, arachidonic acid 100 μM. Here is the method: Compounds of this invention, as well as a positive control, sulindac sulfide were to determine whether they inhibited the production of cyclooxygenase (see Table 5 below).
COX catalyzes the formation of prostaglandins and thromboxane by the oxidative metabolism of arachidonic acid. The compounds of this invention were evaluated for inhibitory effects on purified COX. The COX was purified form ram seminal vesicles, as described by Boopathy, R. and Balasubramanian, J. 239:371-377, 1988. COX activity was assayed as described by Evans, A. T., et al., “Actions of cannabis constituents on enzymes of arachidonate metabolism anti-flammatory potential,” Biochem. Pharmacol., 36:2035-2037, 1987. Briefly, purified COX was incubated with arachidonic acid (100 μM) for 2.0 min at 37° C. in the presence or absence of test compounds. The assay was terminated buy the addition of TCA, and COX activity was determined by absorbance at 530 nm.
As to `COc1cc(/C=C2/C(C)=C(CC(=O)NCc3cccc(I)c3)c3cc(F)ccc32)cc(OC)c1OC` [Example 2, (Z)-5-fluoro-2-methyl-1-(3,4,5-trimethoxybenzylidene)-3-(N-3-iodobenzyl)-indenylacetamide], the “COX I % Inhibition (100 μM)” value was less than 25%.

Turning to `COc1cc(/C=C2/C(C)=C(CC(=O)NCc3cccc(Cl)c3)c3cc(F)ccc32)cc(OC)c1OC` [Example 3], the “COX I % Inhibition (100 μM)” value is less than 35%.

Take `COc1cc(/C=C2/C(C)=C(CC(=O)NCc3ccc(Cl)c(Cl)c3)c3cc(F)ccc32)cc(OC)c1OC` [Example 5, (Z)-5-fluoro-2-methyl-1-(3,4,5-trimethoxybenzylidene)-3-(N-3,4-dichlorobenzyl)-indenylacetamide]: the “COX I % Inhibition (100 μM)” value is less than 25%.

For the molecule `COc1cc(/C=C2/C(C)=C(CC(=O)NCc3ccc(F)cc3F)c3cc(F)ccc32)cc(OC)c1OC` [Example 6, (Z)-5-fluoro-2-methyl-1-(3,4,5-trimethoxybenzylidene)-3-(N-2,4-difluorobenzyl)-indenylacetamide], the “COX I % Inhibition (100 μM)” value is less than 25%.

With `COc1cc(/C=C2/C(C)=C(CC(=O)NCc3cccc(F)c3)c3cc(F)ccc32)cc(OC)c1OC` [Example 7, (Z)-5-fluoro-2-methyl-1-(3,4,5-trimethoxybenzylidene)-3-(N-3-fluorobenzyl)-indenylacetamide], the “COX I % Inhibition (100 μM)” value is less than 25%.

`COc1cc(/C=C2/C(C)=C(CC(=O)NCc3ccc(F)c(F)c3)c3cc(F)ccc32)cc(OC)c1OC` [Example 9, (Z)-5-fluoro-2-methyl-1-(3,4,5-trimethoxybenzylidene)-3-(N-3,4-difluorobenzyl)-indenylacetamide]: the “COX I % Inhibition (100 μM)” value was less than 25%.

`COc1cc(/C=C2/C(C)=C(CC(=O)NCc3c(F)cccc3F)c3cc(F)ccc32)cc(OC)c1OC` [Example 10, (Z)-5-fluoro-2-methyl-1-(3,4,5-trimethoxybenzylidene)-3-(N-2,6-difluorobenzyl)-indenylacetamide]: the “COX I % Inhibition (100 μM)” value was less than 25%.

On to `COc1cc(/C=C2/C(C)=C(CC(=O)NCc3cc(F)cc(C(F)(F)F)c3)c3cc(F)ccc32)cc(OC)c1OC` [Example 11, (Z)-5-fluoro-2-methyl-1-(3,4,5-trimethoxybenzylidene)-3-(N-3-fluoro-5-(trifluoromethyl)-benzyl)-indenylacetamide], for which the “COX I % Inhibition (100 μM)” value was less than 25%.

On to `COc1ccc(CNC(=O)CC2=C(C)/C(=C/c3cc(OC)c(OC)c(OC)c3)c3ccc(F)cc32)cc1` [Example 14, (Z)-5-fluoro-2-methyl-1-(3,4,5-trimethoxybenzylidene)-3-(N-4-methoxybenzyl)-indenylacetamide], for which the “COX I % Inhibition (100 μM)” value is on record as less than 25%.

Take `COc1cc(CNC(=O)CC2=C(C)/C(=C/c3cc(OC)c(OC)c(OC)c3)c3ccc(F)cc32)cc(OC)c1` [Example 16, (Z)-5-fluoro-2-methyl-1-(3,4,5-trimethoxybenzylidene)-3-(N-3,5-dimethoxybenzyl)-indenylacetamide]: the “COX I % Inhibition (100 μM)” value is on record as less than 25%.

As for `COc1ccc(CNC(=O)CC2=C(C)/C(=C/c3cc(OC)c(OC)c(OC)c3)c3ccc(F)cc32)cc1OC` [Example 17, (Z)-5-fluoro-2-methyl-1-(3,4,5-trimethoxybenzylidene)-3-(N-3,4-dimethoxybenzyl)-indenylacetamide], the “COX I % Inhibition (100 μM)” value was less than 25%.

With `COc1cccc(CNC(=O)CC2=C(C)/C(=C/c3cc(OC)c(OC)c(OC)c3)c3ccc(F)cc32)c1OC` [Example 18, (Z)-5 fluoro-2-methyl-1-(3,4,5-trimethoxybenzylidene)-3-(N-2,3-dimethoxybenzyl)-indenylacetamide], the “COX I % Inhibition (100 μM)” value is listed as less than 25%.

In the case of `COc1cc(/C=C2/C(C)=C(CC(=O)NCc3ccc(S(N)(=O)=O)cc3)c3cc(F)ccc32)cc(OC)c1OC` [Example 20, (Z)-5-fluoro-2-methyl-1-(3,4,5-trimethoxybenzylidene)-3-(N-4-sulfonamidobenzyl)-indenylacetamide], the “COX I % Inhibition (100 μM)” value turned out to be 36.5%.

`COc1cc(/C=C2/C(C)=C(CC(=O)NCc3ccc(N(C)C)cc3)c3cc(F)ccc32)cc(OC)c1OC` [Example 21, (Z)-5-fluoro-2-methyl-1-(3,4,5-trimethoxybenzylidene)-3-(N-4-(dimethylamino)-benzyl)-indenylacetamide]: the “COX I % Inhibition (100 μM)” value is reported as 36.5%.

Turning to `COc1cc(/C=C2/C(C)=C(CC(=O)Nc3ccc(Br)cc3)c3cc(F)ccc32)cc(OC)c1OC` [Example 23, (Z)-5-fluoro-2-methyl-1-(3,4,5-trimethoxybenzylidene)-3-(N-4-bromophenyl)-indenylacetamide], the “COX I % Inhibition (100 μM)” value is reported as less than 25%.

For `CCN(CC)C(=O)CC1=C(C)/C(=C/c2cc(OC)c(OC)c(OC)c2)c2ccc(F)cc21` [Example 24, (Z)-5-fluoro-2-methyl-1-(3,4,5 trimethoxybenzylidene)-3-(N,N-diethyl)-indenylacetamide], the “COX I % Inhibition (100 μM)” value is reported as less than 25%.

As for `COc1cc(/C=C2/C(C)=C(CC(=O)NC(C)(C)C)c3cc(F)ccc32)cc(OC)c1OC` [Example 25, (Z)-5-fluoro-2-methyl-1-(3,4,5-trimethoxybenzylidene)-3-(N-tertbutyl)-indenylacetamide], the “COX I % Inhibition (100 μM)” value is listed as 25%.

Regarding `COc1cc(/C=C2/C(C)=C(CC(=O)N(C3CCCCC3)C3CCCCC3)c3cc(F)ccc32)cc(OC)c1OC` [Example 26, (Z)-5-fluoro-2-methyl-1-(3,4,5-trimethoxybenzylidene)-3-(N,N-dicyc1ohexyl)-indenylacetamide], the “COX I % Inhibition (100 μM)” value amounted to 28.1%.

On to `COc1cc(/C=C2/C(C)=C(CC(=O)NCc3ccco3)c3cc(F)ccc32)cc(OC)c1OC` [Example 29, (Z)-5-fluoro-2-methyl-1-(3,4,5-trimethoxybenzylidene)-3-(N-furfuryl)-indenylacetamide], for which the “COX I % Inhibition (100 μM)” value is less than 25%.

As to `COc1cc(/C=C2/C(C)=C(CC(=O)NCC3CC3)c3cc(F)ccc32)cc(OC)c1OC` [Example 30, (Z)-5-fluoro-2-methyl-1-(3,4,5-trimethoxybenzylidene)-3-(N-cyclopropylmethyl)-indenylacetamide], the “COX I % Inhibition (100 μM)” value is on record as less than 25%.

For `COc1cc(/C=C2/C(C)=C(CC(=O)NCc3cccnc3)c3cc(F)ccc32)cc(OC)c1OC` [Example 49, (Z)-5 fluoro-2-methyl-1-(3,4,5 trimetboxybenzylidene)-3-(N-3-pyridinyl)-idenylacetamide], the “COX I % Inhibition (100 μM)” value turned out to be 25%.

Regarding `COc1cc(/C=C2/C(C)=C(CC(=O)NCc3ccncc3)c3cc(F)ccc32)cc(OC)c1OC` [Example 50], the “COX I % Inhibition (100 μM)” value turned out to be 29.2%.

Turning to `COc1cc(/C=C2\C(C)=C(CC(=O)NCc3ccccc3)c3cc(F)ccc32)cc(OC)c1OC` [Example 52, (E)-5-Fluoro-2-methyl-1-(3,4,5-trimethoxybenzylidene)-3-(N-benzyl)-indenylacetamide], the “COX I % Inhibition (100 μM)” value is less than 25%.

As usually defined, the IC50 is the midpoint of a concentration-inhibition curve.
